Test results as given in ChEMBL document CHEMBL1909046, “DrugMatrix in vitro pharmacology data”.
pIC50: −log10 of the molar value.

Key:
[1] = DRUGMATRIX: Glutamate, NMDA, Agonism radioligand binding (ligand: [3H] CGP-39653); assay type: cell membranes, Rattus norvegicus, Wistar, Cerebral cortex, Membrane; details: Not Active = under 50% inhibition at 10 µM
[2] = DRUGMATRIX: Platelet-Derived Growth Factor (PDGF) radioligand binding (ligand: [125I] PDGF); assay type: cell-based; details: nih3t3; Not Active = under 50% inhibition at 10 µM
[3] = DRUGMATRIX: Nicotinic Acetylcholine radioligand binding (ligand: [125I] Epibatidine); assay type: cell membranes, Membrane; details: imr-32; Not Active = under 50% inhibition at 10 µM
[4] = target: Prostaglandin G/H synthase 1 (Homo sapiens, UniProt P23219); experiment: biochemical; assay type: tissue-based, Platelet; details: for IC50: platelet;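 for all read-outs here: inhibition of COX-1 enzyme activity, with arachidonic acid supplied as substrate; in other assays of this panel Not Active means under 50% inhibition at 10 µM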
Chain of Prostaglandin G/H synthase 1 (P23219 whole entry): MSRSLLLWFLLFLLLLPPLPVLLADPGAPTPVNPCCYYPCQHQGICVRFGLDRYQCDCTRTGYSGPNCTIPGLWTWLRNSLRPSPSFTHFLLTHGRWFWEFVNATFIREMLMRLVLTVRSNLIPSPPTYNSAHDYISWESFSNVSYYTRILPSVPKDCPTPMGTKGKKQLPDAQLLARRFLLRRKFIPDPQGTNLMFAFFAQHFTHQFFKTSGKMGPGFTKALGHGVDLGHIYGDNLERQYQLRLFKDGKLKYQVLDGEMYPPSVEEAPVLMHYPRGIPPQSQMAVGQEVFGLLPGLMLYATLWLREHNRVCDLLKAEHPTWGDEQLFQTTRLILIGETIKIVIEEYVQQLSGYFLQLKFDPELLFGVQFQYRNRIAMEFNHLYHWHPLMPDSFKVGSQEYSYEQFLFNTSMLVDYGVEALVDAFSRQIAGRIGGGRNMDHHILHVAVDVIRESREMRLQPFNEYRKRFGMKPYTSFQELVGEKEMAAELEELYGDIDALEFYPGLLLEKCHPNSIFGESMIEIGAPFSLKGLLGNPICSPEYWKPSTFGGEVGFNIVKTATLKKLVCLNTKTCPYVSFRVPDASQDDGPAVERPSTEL

[5] = target: T1, Nitric oxide synthase, inducible (Mus musculus, UniProt P29477); design: species or system Escherichia coli;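 note: inhibition of iNOS enzyme activity measured with L-arginine as substrate; in other assays of this panel Not Active means under 50% inhibition at 10 µM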
T1 sequence (P29477 whole entry): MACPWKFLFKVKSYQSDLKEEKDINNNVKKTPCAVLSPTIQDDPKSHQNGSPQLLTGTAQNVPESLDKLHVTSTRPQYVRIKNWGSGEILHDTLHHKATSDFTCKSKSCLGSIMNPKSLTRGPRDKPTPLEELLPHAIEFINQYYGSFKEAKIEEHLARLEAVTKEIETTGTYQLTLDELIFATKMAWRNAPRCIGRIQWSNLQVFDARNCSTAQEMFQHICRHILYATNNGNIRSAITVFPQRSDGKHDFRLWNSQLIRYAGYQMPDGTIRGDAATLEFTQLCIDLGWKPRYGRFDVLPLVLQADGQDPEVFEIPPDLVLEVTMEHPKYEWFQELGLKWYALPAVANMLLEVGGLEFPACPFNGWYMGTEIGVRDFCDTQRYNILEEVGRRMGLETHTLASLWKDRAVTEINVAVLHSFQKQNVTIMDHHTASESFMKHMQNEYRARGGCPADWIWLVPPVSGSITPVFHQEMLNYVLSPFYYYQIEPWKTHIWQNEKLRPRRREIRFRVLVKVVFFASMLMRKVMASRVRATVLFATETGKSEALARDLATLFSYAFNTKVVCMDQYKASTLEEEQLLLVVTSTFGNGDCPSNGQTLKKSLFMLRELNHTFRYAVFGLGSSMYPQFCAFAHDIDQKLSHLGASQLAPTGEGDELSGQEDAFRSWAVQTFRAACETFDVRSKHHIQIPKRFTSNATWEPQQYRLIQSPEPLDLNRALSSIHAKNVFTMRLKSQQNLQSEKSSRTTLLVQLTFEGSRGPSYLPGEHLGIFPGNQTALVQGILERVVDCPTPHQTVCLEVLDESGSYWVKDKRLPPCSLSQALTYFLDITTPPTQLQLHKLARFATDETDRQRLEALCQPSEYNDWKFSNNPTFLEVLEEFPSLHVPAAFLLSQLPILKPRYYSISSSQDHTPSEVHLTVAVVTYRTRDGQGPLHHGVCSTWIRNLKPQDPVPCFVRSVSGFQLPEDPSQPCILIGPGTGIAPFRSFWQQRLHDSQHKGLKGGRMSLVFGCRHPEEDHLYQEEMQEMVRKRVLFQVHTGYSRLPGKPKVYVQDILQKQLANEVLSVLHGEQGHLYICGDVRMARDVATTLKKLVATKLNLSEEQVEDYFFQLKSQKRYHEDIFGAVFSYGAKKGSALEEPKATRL

Leukotriene C4 synthase = target: T2, Leukotriene C4 synthase (Cavia porcellus, UniProt A6XA80); experiment: biochemical; assay type: tissue-based, Lung;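 note: enzyme inhibition assay of leukotriene C4 synthase, using LTA4 as the substrate; in other assays of this panel Not Active means under 50% inhibition at 10 µM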
T2 sequence (A6XA80 whole entry): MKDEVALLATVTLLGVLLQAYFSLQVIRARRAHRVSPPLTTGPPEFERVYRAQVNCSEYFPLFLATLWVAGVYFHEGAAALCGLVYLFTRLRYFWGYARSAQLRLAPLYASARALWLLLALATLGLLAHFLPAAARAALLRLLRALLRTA

[6] = target: Mitogen-activated protein kinase 14 (Homo sapiens, UniProt Q16539); design: species or system Escherichia coli;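 note: inhibition of p38alpha enzyme activity in a biochemical kinase assay, with myelin basic protein serving as substrate; in other assays of this panel Not Active means under 50% inhibition at 10 µM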
Chain of Mitogen-activated protein kinase 14 (Q16539 whole entry): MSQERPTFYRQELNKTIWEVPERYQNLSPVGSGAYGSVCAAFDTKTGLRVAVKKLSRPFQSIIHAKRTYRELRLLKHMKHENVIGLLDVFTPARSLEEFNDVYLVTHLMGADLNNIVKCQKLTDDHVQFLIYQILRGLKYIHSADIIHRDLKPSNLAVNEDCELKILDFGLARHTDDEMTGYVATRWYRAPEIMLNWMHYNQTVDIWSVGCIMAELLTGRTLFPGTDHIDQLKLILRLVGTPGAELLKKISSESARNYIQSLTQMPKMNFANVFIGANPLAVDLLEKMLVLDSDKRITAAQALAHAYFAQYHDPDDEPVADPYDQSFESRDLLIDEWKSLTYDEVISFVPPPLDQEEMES

[7] = target: Epidermal growth factor receptor (Homo sapiens, UniProt P00533); experiment: DRUGMATRIX: Protein Tyrosine Kinase, EGF Receptor enzyme inhibition (substrate: Poly(Glu:Tyr)); assay type: cell-based, Insect cells; details: insect cells; Not Active = under 50% inhibition at 10 µM
Chain of Epidermal growth factor receptor (P00533 whole entry): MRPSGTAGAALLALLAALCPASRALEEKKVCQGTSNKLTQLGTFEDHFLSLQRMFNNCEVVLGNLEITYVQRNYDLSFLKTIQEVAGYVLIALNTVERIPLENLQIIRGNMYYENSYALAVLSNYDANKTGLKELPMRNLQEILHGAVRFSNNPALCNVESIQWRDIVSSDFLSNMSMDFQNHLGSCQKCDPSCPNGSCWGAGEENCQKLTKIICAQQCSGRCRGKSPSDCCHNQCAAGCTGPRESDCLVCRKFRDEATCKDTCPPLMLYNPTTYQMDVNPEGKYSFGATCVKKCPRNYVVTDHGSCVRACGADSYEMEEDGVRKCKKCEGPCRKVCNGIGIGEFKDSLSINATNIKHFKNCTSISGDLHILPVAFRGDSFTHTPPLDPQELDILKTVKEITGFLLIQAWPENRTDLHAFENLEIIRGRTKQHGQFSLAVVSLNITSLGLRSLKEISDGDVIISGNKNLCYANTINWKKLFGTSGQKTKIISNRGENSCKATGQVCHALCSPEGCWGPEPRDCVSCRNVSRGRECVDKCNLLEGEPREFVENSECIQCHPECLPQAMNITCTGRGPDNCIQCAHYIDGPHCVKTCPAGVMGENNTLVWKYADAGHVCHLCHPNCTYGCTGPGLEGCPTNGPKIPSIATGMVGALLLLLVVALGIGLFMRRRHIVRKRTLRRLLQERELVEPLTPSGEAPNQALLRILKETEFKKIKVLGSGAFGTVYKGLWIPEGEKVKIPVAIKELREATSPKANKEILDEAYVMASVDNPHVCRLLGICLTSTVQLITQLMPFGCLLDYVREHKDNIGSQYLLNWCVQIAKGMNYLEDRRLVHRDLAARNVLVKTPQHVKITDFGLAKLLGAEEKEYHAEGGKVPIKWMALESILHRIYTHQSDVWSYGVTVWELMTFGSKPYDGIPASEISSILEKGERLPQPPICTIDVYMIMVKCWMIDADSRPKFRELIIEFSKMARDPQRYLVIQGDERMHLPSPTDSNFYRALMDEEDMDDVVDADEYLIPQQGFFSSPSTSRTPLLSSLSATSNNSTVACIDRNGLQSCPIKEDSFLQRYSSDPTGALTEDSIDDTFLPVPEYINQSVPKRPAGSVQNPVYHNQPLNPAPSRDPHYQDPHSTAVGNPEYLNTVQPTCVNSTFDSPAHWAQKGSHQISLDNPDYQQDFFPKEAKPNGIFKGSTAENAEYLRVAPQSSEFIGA

SMILES	IC50 [1]	Ki [1]	IC50 [2]	Ki [2]	IC50 [3]	Ki [3]	IC50 [4]	IC50 [5]	IC50 (Leukotriene C4 synthase)	IC50 [6]	IC50 [7]	pIC50 ([4]; read-out: IC50)	pIC50 (Leukotriene C4 synthase; read-out: IC50)	pIC50 ([6]; read-out: IC50)
CCOc1cc(N)c(Cl)cc1C(=O)NCC1CN(Cc2ccc(F)cc2)CCO1 (stereo not given) [MOSAPRIDE]	Not Active	Not Active	Not Active	Not Active	Not Active	Not Active	Not Active	Not Active	Not Active	Not Active	Not Active			
O=C(c1ccccc1)c1ccc2n1CCC2C(=O)O (stereo not given) [KETOROLAC]	Not Active	Not Active	Not Active	Not Active	Not Active	Not Active		Not Active	Not Active	Not Active	Not Active	7.89		
Nc1nc(N)c2nc(-c3ccccc3)c(N)nc2n1	Not Active	Not Active	Not Active	Not Active	Not Active	Not Active	Not Active	Not Active	Not Active	Not Active	Not Active			
Oc1ccc(/C=C/c2cc(O)cc(O)c2)cc1 [RESVERATROL]	Not Active	Not Active	Not Active	Not Active	Not Active	Not Active		Not Active	Not Active	Not Active	Not Active			
Cc1ccnc(NS(=O)(=O)c2ccc(N)cc2)n1 [SULFAMERAZINE]	Not Active	Not Active	Not Active	Not Active	Not Active	Not Active	Not Active	Not Active	Not Active	Not Active	Not Active			
CCN1CCCC1CNC(=O)c1cc(S(N)(=O)=O)ccc1OC (stereo not given) [SULPIRIDE]	Not Active	Not Active	Not Active	Not Active	Not Active	Not Active	Not Active	Not Active	Not Active	Not Active	Not Active			
O=C1CC[C@@]2(O)[C@H]3Cc4ccc(O)c5c4[C@@]2(CCN3CC2CC2)[C@H]1O5 [NALTREXONE]	Not Active	Not Active	Not Active	Not Active	Not Active	Not Active	Not Active	Not Active	Not Active	Not Active	Not Active			
CCN(CC)C(=S)SSC(=S)N(CC)CC	Not Active	Not Active	Not Active	Not Active	Not Active	Not Active	Not Active	Not Active	Not Active	Not Active	Not Active			
O=C(OC[C@H]1O[C@@H](OC(=O)c2cc(O)c(O)c(OC(=O)c3cc(O)c(O)c(O)c3)c2)[C@H](OC(=O)c2cc(O)c(O)c(OC(=O)c3cc(O)c(O)c(O)c3)c2)[C@@H](OC(=O)c2cc(O)c(O)c(OC(=O)c3cc(O)c(O)c(O)c3)c2)[C@@H]1OC(=O)c1cc(O)c(O)c(OC(=O)c2cc(O)c(O)c(O)c2)c1)c1cc(O)c(O)c(OC(=O)c2cc(O)c(O)c(O)c2)c1 [TANNIC ACID]	Not Active	Not Active	Not Active	Not Active	Not Active	Not Active	Not Active	Not Active			Not Active		5.57	6.43
C=CCc1ccc2c(c1)OCO2 [SAFROLE]	Not Active	Not Active	Not Active	Not Active	Not Active	Not Active	Not Active	Not Active	Not Active	Not Active	Not Active			
C#C[C@]1(O)CC[C@H]2[C@@H]3[C@H](C)CC4=C(CCC(=O)C4)[C@H]3CC[C@@]21C [TIBOLONE]	Not Active	Not Active	Not Active	Not Active	Not Active	Not Active	Not Active	Not Active	Not Active	Not Active	Not Active			
CC[C@@]1(O)C(=O)OCc2c1cc1n(c2=O)Cc2cc3c(CN(C)C)c(O)ccc3nc2-1 [TOPOTECAN]	Not Active	Not Active	Not Active	Not Active	Not Active	Not Active	Not Active	Not Active	Not Active	Not Active	Not Active			
CC1(C)[C@H](C(=O)O)N2C(=O)C[C@H]2S1(=O)=O [SULBACTAM]	Not Active	Not Active	Not Active	Not Active	Not Active	Not Active	Not Active	Not Active	Not Active	Not Active	Not Active			
CCN(CC)N=O [N-NITROSODIETHYLAMINE]	Not Active	Not Active	Not Active	Not Active	Not Active	Not Active	Not Active	Not Active	Not Active	Not Active	Not Active			
C[C@]12CCC(=O)C[C@@H]1CC[C@@H]1[C@@H]2CC[C@]2(C)[C@@H](O)CC[C@@H]12 [STANOLONE]	Not Active	Not Active	Not Active	Not Active	Not Active	Not Active	Not Active	Not Active	Not Active	Not Active	Not Active			
Cc1cccc(C)c1NC(=O)C(C)N (stereo not given) [TOCAINIDE]	Not Active	Not Active	Not Active	Not Active	Not Active	Not Active	Not Active	Not Active	Not Active	Not Active	Not Active			
CS(=O)(=O)c1ccc(C2=C(c3ccccc3)C(=O)OC2)cc1 [ROFECOXIB]	Not Active	Not Active	Not Active	Not Active	Not Active	Not Active		Not Active	Not Active	Not Active	Not Active			
COC(=O)Nc1nc2ccc(C(=O)c3ccccc3)cc2[nH]1 [MEBENDAZOLE]	Not Active	Not Active	Not Active	Not Active	Not Active	Not Active	Not Active	Not Active	Not Active	Not Active				
Cc1cc2c(s1)Nc1ccccc1N=C2N1CCN(C)CC1 [OLANZAPINE]							Not Active	Not Active	Not Active	Not Active	Not Active			
CNCCCC12CCC(c3ccccc31)c1ccccc12 [MAPROTILINE]							Not Active	Not Active	Not Active	Not Active	Not Active			
CN(C)CCC=C1c2ccccc2COc2ccccc21 [DOXEPIN]							Not Active	Not Active	Not Active	Not Active	Not Active			
